Measurements as given in patent US20230085307A1, “PYRIDAZINONE COMPOUND AND HERBICIDE” (NISSAN CHEMICAL CORPORATION, priority 2019, published 2023).

How the values were obtained:
velvetleaf [1] = experiment: Test Example 4: herbicidal effect by soil treatment (Table 19, symbol M); type: in vivo, velvetleaf (Abutilon theophrasti); details: amount of applied herbicide 320 g/ha
How it was run: (§1)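 Pre-emergence style soil spray: seeds under ~1.5 cm sterilized diluvial soil received a uniform coat of emulsion diluted to the predetermined herbicide amount. Greenhouse 25–30° C; readout at week three on previously defined criteria.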

southern crabgrass [2] = experiment: Test Example 5: herbicidal effect by foliage application, plastic box (Table 20, symbol F); type: in vivo, southern crabgrass (Digitaria ciliaris); details: foliage application, 320 g/ha, three weeks after application
How it was run: (§2)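 Plants were sown into sterilized diluvial soil under about 1.5 cm cover and kept in a greenhouse at 25° C. to 30° C. Fourteen days on, foliage received an even spray of the diluted emulsion. Herbicidal or crop effect was judged three weeks afterwards.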

persian speedwell [3] = experiment: Test Example 4: herbicidal effect by soil treatment (Table 19, symbol R); type: in vivo, Persian speedwell (Veronica persica); details: amount of applied herbicide 320 g/ha
How it was run: as §1

chickweed [4] = experiment: Test Example 5: herbicidal effect by foliage application, plastic box (Table 20, symbol P); type: in vivo, common chickweed (Stellaria media); details: foliage application, 320 g/ha, three weeks after application
How it was run: as §2

barnyard grass [5] = experiment: Test Example 5: herbicidal effect by foliage application, plastic box (Table 20, symbol H); type: in vivo, barnyard grass (Echinochloa crus-galli); details: foliage application, 320 g/ha, three weeks after application
How it was run: as §2

wild oat [6] = experiment: Test Example 4: herbicidal effect by soil treatment (Table 19, symbol I); type: in vivo, wild oat (Avena fatua); details: amount of applied herbicide 320 g/ha
How it was run: as §1

windgrass [7] = experiment: Test Example 4: herbicidal effect by soil treatment (Table 19, symbol L); type: in vivo, windgrass (Apera spica-venti); details: amount of applied herbicide 320 g/ha
How it was run: as §1

green foxtail [8] = experiment: Test Example 5: herbicidal effect by foliage application, plastic box (Table 20, symbol G); type: in vivo, green foxtail (Setaria viridis); details: foliage application, 320 g/ha, three weeks after application
How it was run: as §2

velvetleaf [9] = experiment: Test Example 5: herbicidal effect by foliage application, plastic box (Table 20, symbol M); type: in vivo, velvetleaf (Abutilon theophrasti); details: foliage application, 320 g/ha, three weeks after application
How it was run: as §2

windgrass [10] = experiment: Test Example 5: herbicidal effect by foliage application, plastic box (Table 20, symbol L); type: in vivo, windgrass (Apera spica-venti); details: foliage application, 320 g/ha, three weeks after application
How it was run: as §2

lambsquarters [11] = experiment: Test Example 5: herbicidal effect by foliage application, plastic box (Table 20, symbol O); type: in vivo, lambsquarters (Chenopodium album); details: foliage application, 320 g/ha, three weeks after application
How it was run: as §2

Italian ryegrass [12] = experiment: Test Example 4: herbicidal effect by soil treatment (Table 19, symbol K); type: in vivo, Italian ryegrass (Lolium multiflorum); details: amount of applied herbicide 320 g/ha
How it was run: as §1

blackgrass [13] = experiment: Test Example 4: herbicidal effect by soil treatment (Table 19, symbol J); type: in vivo, blackgrass (Alopecurus myosuroides); details: amount of applied herbicide 320 g/ha
How it was run: as §1

barnyard grass [14] = experiment: Test Example 3: herbicidal effect by foliage application, Wagner pot (Table 18, symbol H); type: in vivo, barnyard grass (Echinochloa crus-galli); details: 320 g/ha
How it was run: (§3)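 Plants were sown in alluvial soil held under 0.1–0.5 cm standing water and grown 14 days in a greenhouse at 25–30 °C. An emulsifiable formulation, water-diluted to the set dose, was then sprayed onto the foliage, and effects were scored three weeks later using previously defined criteria.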

persian speedwell [15] = experiment: Test Example 5: herbicidal effect by foliage application, plastic box (Table 20, symbol R); type: in vivo, Persian speedwell (Veronica persica); details: foliage application, 320 g/ha, three weeks after application
How it was run: as §2

redroot pigweed [16] = experiment: Test Example 4: herbicidal effect by soil treatment (Table 19, symbol N); type: in vivo, redroot pigweed (Amaranthus retroflexus); details: amount of applied herbicide 320 g/ha
How it was run: as §1

Japanese bulrush = experiment: Test Example 1: herbicidal activity, application before weed generation under submerged conditions (Table 16, symbol B); type: in vivo, Japanese bulrush (Schoenoplectus juncoides); details: amount of applied herbicide 320 g/ha
How it was run: (§4)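 Emulsion formulation, water-diluted to set dose, was put onto the flooded surface (4 cm depth, alluvial soil) the same day weeds were sown and 2.5-leaf rice transplanted. After 3 weeks at 25-30 °C under glass, each species was rated 0 (≤5% kill) to 5 (≥90% kill).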

lambsquarters [17] = experiment: Test Example 4: herbicidal effect by soil treatment (Table 19, symbol O); type: in vivo, lambsquarters (Chenopodium album); details: amount of applied herbicide 320 g/ha
How it was run: as §1

blackgrass [18] = experiment: Test Example 5: herbicidal effect by foliage application, plastic box (Table 20, symbol J); type: in vivo, blackgrass (Alopecurus myosuroides); details: foliage application, 320 g/ha, three weeks after application
How it was run: as §2

wild oat [19] = experiment: Test Example 5: herbicidal effect by foliage application, plastic box (Table 20, symbol I); type: in vivo, wild oat (Avena fatua); details: foliage application, 320 g/ha, three weeks after application
How it was run: as §2

barnyard grass [20] = experiment: Test Example 4: herbicidal effect by soil treatment (Table 19, symbol H); type: in vivo, barnyard grass (Echinochloa crus-galli); details: amount of applied herbicide 320 g/ha
How it was run: as §1

rice flat sedge = experiment: Test Example 3: herbicidal effect by foliage application, Wagner pot (Table 18, symbol E); type: in vivo, rice flat sedge (Cyperus iria); details: 320 g/ha
How it was run: as §3

late watergrass = experiment: Test Example 1: herbicidal activity, application before weed generation under submerged conditions (Table 16, symbol A); type: in vivo, late watergrass (Echinochloa oryzicola); details: amount of applied herbicide 320 g/ha
How it was run: as §4

southern crabgrass [21] = experiment: Test Example 4: herbicidal effect by soil treatment (Table 19, symbol F); type: in vivo, southern crabgrass (Digitaria ciliaris); details: amount of applied herbicide 320 g/ha
How it was run: as §1

Italian ryegrass [22] = experiment: Test Example 5: herbicidal effect by foliage application, plastic box (Table 20, symbol K); type: in vivo, Italian ryegrass (Lolium multiflorum); details: foliage application, 320 g/ha, three weeks after application
How it was run: as §2

Chinese sprangletop = experiment: Test Example 3: herbicidal effect by foliage application, Wagner pot (Table 18, symbol D); type: in vivo, chinese sprangletop (Leptochloa chinensis); details: 320 g/ha
How it was run: as §3

oval-leafed pondweed = experiment: Test Example 1: herbicidal activity, application before weed generation under submerged conditions (Table 16, symbol C); type: in vivo, oval-leafed pondweed (Monochoria vaginalis); details: amount of applied herbicide 320 g/ha
How it was run: as §4

chickweed [23] = experiment: Test Example 4: herbicidal effect by soil treatment (Table 19, symbol P); type: in vivo, common chickweed (Stellaria media); details: amount of applied herbicide 320 g/ha
How it was run: as §1

redroot pigweed [24] = experiment: Test Example 5: herbicidal effect by foliage application, plastic box (Table 20, symbol N); type: in vivo, redroot pigweed (Amaranthus retroflexus); details: foliage application, 320 g/ha, three weeks after application
How it was run: as §2

green foxtail [25] = experiment: Test Example 4: herbicidal effect by soil treatment (Table 19, symbol G); type: in vivo, green foxtail (Setaria viridis); details: amount of applied herbicide 320 g/ha
How it was run: as §1

Compound | F: southern crabgrass, herbicidal effect grade (southern crabgrass [2]) | P: chickweed, herbicidal effect grade (chickweed [4]) | H: barnyard grass, herbicidal effect grade (barnyard grass [5]) | G: green foxtail, herbicidal effect grade (green foxtail [8]) | M: velvetleaf, herbicidal effect grade (velvetleaf [9]) | L: windgrass, herbicidal effect grade (windgrass [10]) | O: lambsquarters, herbicidal effect grade (lambsquarters [11]) | herbicidal effect on barnyard grass (H) (barnyard grass [14]) | R: persian speedwell, herbicidal effect grade (persian speedwell [15]) | Herbicidal effect, B: Japanese bulrush (Japanese bulrush) | J: blackgrass, herbicidal effect grade (blackgrass [18]) | I: wild oat, herbicidal effect grade (wild oat [19]) | herbicidal effect on rice flat sedge (E) (rice flat sedge) | Herbicidal effect, A: late watergrass (late watergrass) | K: Italian ryegrass, herbicidal effect grade (Italian ryegrass [22]) | herbicidal effect on Chinese sprangletop (D) (Chinese sprangletop) | Herbicidal effect, C: oval-leafed pondweed (oval-leafed pondweed) | N: redroot pigweed, herbicidal effect grade (redroot pigweed [24]) | also measured
Cc1nn(C)c(=O)c(-c2c(-c3ccc4c(c3)OCCO4)sc3cc(Cl)ccc23)c1O [3-047] | 0 (Herbicidal rate of 5% or less (almost no effect)) | 3 (Herbicidal rate of 40% or more and less than 70%) | 0 (Herbicidal rate of 5% or less (almost no effect)) | 0 (Herbicidal rate of 5% or less (almost no effect)) | 1 (Herbicidal rate of 5% or more and less than 20%) | 0 (Herbicidal rate of 5% or less (almost no effect)) | 2 (Herbicidal rate of 20% or more and less than 40%) | 3 (Herbicidal rate of 40% or more and less than 70%) | 5 (Herbicidal rate of 90% or more (almost completely withered)) | 2 (Herbicidal rate of 20% or more and less than 40%) | 0 (Herbicidal rate of 5% or less (almost no effect)) | 0 (Herbicidal rate of 5% or less (almost no effect)) | 2 (Herbicidal rate of 20% or more and less than 40%) | 3 (Herbicidal rate of 40% or more and less than 70%) | 0 (Herbicidal rate of 5% or less (almost no effect)) | 3 (Herbicidal rate of 40% or more and less than 70%) | 0 (Herbicidal rate of 5% or less (almost no effect)) | 0 (Herbicidal rate of 5% or less (almost no effect)) | M: velvetleaf, herbicidal effect grade (velvetleaf [1]): 0 (Herbicidal rate of 5% or less (almost no effect)); R: persian speedwell, herbicidal effect grade (persian speedwell [3]): 5 (Herbicidal rate of 90% or more (almost completely withered)); I: wild oat, herbicidal effect grade (wild oat [6]): 0 (Herbicidal rate of 5% or less (almost no effect)); L: windgrass, herbicidal effect grade (windgrass [7]): 0 (Herbicidal rate of 5% or less (almost no effect)); K: Italian ryegrass, herbicidal effect grade (Italian ryegrass [12]): 0 (Herbicidal rate of 5% or less (almost no effect)); J: blackgrass, herbicidal effect grade (blackgrass [13]): 0 (Herbicidal rate of 5% or less (almost no effect)); N: redroot pigweed, herbicidal effect grade (redroot pigweed [16]): 1 (Herbicidal rate of 5% or more and less than 20%); O: lambsquarters, herbicidal effect grade (lambsquarters [17]): 3 (Herbicidal rate of 40% or more and less than 70%); H: barnyard grass, herbicidal effect grade (barnyard grass [20]): 0 (Herbicidal rate of 5% or less (almost no effect)); F: southern crabgrass, herbicidal effect grade (southern crabgrass [21]): 0 (Herbicidal rate of 5% or less (almost no effect)); P: chickweed, herbicidal effect grade (chickweed [23]): 0 (Herbicidal rate of 5% or less (almost no effect)); G: green foxtail, herbicidal effect grade (green foxtail [25]): 0 (Herbicidal rate of 5% or less (almost no effect))
COCc1ccc2c(-c3c(O)c(C)nn(C)c3=O)c(-c3ccccc3OC)sc2c1 [3-137] | 5 (Herbicidal rate of 90% or more (almost completely withered)) | 5 (Herbicidal rate of 90% or more (almost completely withered)) | 3 (Herbicidal rate of 40% or more and less than 70%) | 5 (Herbicidal rate of 90% or more (almost completely withered)) | 5 (Herbicidal rate of 90% or more (almost completely withered)) | 4 (Herbicidal rate of 70% or more and less than 90%) | 0 (Herbicidal rate of 5% or less (almost no effect)) | 3 (Herbicidal rate of 40% or more and less than 70%) | 5 (Herbicidal rate of 90% or more (almost completely withered)) | 0 (Herbicidal rate of 5% or less (almost no effect)) | 4 (Herbicidal rate of 70% or more and less than 90%) | 4 (Herbicidal rate of 70% or more and less than 90%) | 5 (Herbicidal rate of 90% or more (almost completely withered)) | 3 (Herbicidal rate of 40% or more and less than 70%) | 4 (Herbicidal rate of 70% or more and less than 90%) | 5 (Herbicidal rate of 90% or more (almost completely withered)) | 0 (Herbicidal rate of 5% or less (almost no effect)) | 1 (Herbicidal rate of 5% or more and less than 20%) | Herbicidal effect by soil treatment, M: velvetleaf (velvetleaf [1]): 0 (Herbicidal rate of 5% or less (almost no effect)); Herbicidal effect by soil treatment, R: persian speedwell (persian speedwell [3]): 4 (Herbicidal rate of 70% or more and less than 90%); Herbicidal effect by soil treatment, I: wild oat (wild oat [6]): 1 (Herbicidal rate of 5% or more and less than 20%); Herbicidal effect by soil treatment, L: windgrass (windgrass [7]): 0 (Herbicidal rate of 5% or less (almost no effect)); Herbicidal effect by soil treatment, K: Italian ryegrass (Italian ryegrass [12]): 1 (Herbicidal rate of 5% or more and less than 20%); Herbicidal effect by soil treatment, J: blackgrass (blackgrass [13]): 0 (Herbicidal rate of 5% or less (almost no effect)); Herbicidal effect by soil treatment, N: redroot pigweed (redroot pigweed [16]): 0 (Herbicidal rate of 5% or less (almost no effect)); Herbicidal effect by soil treatment, O: lambsquarters (lambsquarters [17]): 0 (Herbicidal rate of 5% or less (almost no effect)); Herbicidal effect by soil treatment, H: barnyard grass (barnyard grass [20]): 5 (Herbicidal rate of 90% or more (almost completely withered)); Herbicidal effect by soil treatment, F: southern crabgrass (southern crabgrass [21]): 0 (Herbicidal rate of 5% or less (almost no effect)); Herbicidal effect by soil treatment, P: chickweed (chickweed [23]): 5 (Herbicidal rate of 90% or more (almost completely withered)); Herbicidal effect by soil treatment, G: green foxtail (green foxtail [25]): 1 (Herbicidal rate of 5% or more and less than 20%)
